Where “and” joins values, the source holds several entries; their conditions need not be identical. Identical values can stand only once.
What was measured:
[1] = target: T1, PKCα (Homo sapiens, UniProt P17252); details: read-out: Ki PKCα; cited from earlier work
[2] = target: T1, PKCα; experiment: [3H]PDBu displacement, 96-well plate filtration binding assay; details: for Displacement assay raw data (CCPM): single replicate wells; for Residual [^3H]PDBu binding to PKCα (% of control): 20 μM compound concentration, mean + SEM, n = 2–8
[3] = target: PKCα and -δ; design: method as in PMID 19438240; details: for PKCα and -δ; cited from earlier work

In the case of `CCCCCCCCCCc1ccc2c(c1)N[C@@H](C(C)C)C(=O)N[C@H](CO)C2` [9-Decyl-benzolactam-V8, 9-decyl-benzolactam-V8], the Ki [1] is given as 3.8 nM.
For `CCCCC(CC)Oc1nc(CO)nc(C(=O)OCc2cccc(C(F)(F)F)c2)c1C` (stereo not shown) [Compound 2l, 3-(trifluoromethyl)benzyl 6-(heptan-3-yloxy)-2-(hydroxymethyl)-5-methylpyrimidine-4-carboxylate], the “Displacement assay raw data (CCPM)” value ([2]; 0,2 µM test substance) was 11787 CCPM and 12303 CCPM and 12556 CCPM and 11461 CCPM and 11853 CCPM and 10747 CCPM, the “Displacement assay raw data (CCPM)” value ([2]; 1 µM test substance) was 11810 CCPM and 12833 CCPM and 12739 CCPM and 9497 CCPM and 9690 CCPM and 11213 CCPM and the “Displacement assay raw data (CCPM)” value ([2]; 4 µM test substance) was 12017 CCPM and 12127 CCPM and 12580 CCPM and 10346 CCPM and 11241 CCPM and 10654 CCPM. The “Displacement assay raw data (CCPM)” value ([2]; 10 µM test substance) was 10371 CCPM and 11662 CCPM and 12071 CCPM and 9995 CCPM and 8831 CCPM and 10464 CCPM, the “Residual [^3H]PDBu binding to PKCα (% of control)” value [2] was 87.2 ± 3.1 % of control and the “Displacement assay raw data (CCPM)” value ([2]; 20 µM test substance) was 9853 CCPM and 10455 CCPM and 11136 CCPM and 9012 CCPM and 9579 CCPM and 9472 CCPM. For the same compound, the “Displacement assay raw data (CCPM)” value ([2]; 30 µM test substance) was 9538 CCPM and 8697 CCPM and 9196 CCPM and 7998 CCPM and 9967 CCPM and 8566 CCPM and the “Displacement of [^3H]PDBu from PKCα (in words)” value ([2]; concentration range of 0.2–30 μM) was “strongest concentration dependence”.
In the case of `O=C(OCc1cccc(C(F)(F)F)c1)c1cc(CO)cc(C(=O)OCc2cccc(C(F)(F)F)c2)c1` [HMI-1a3, reference compound], the “Residual [^3H]PDBu binding to PKCα (% of control)” value [2] is reported as 54.8 ± 2.6 % of control.
For `CCCCC(CC)OC(=O)c1cc(CO)cc(C(=O)OC(CC)CCCC)c1` (stereo not shown) [HMI-1b11], the Ki [3] is given as 205 to 915 nM.
For `CC(C)C1C(=O)NC(CO)Cc2c[nH]c3cccc(c23)N1C` (stereo not shown) [Indolactam-V, indolactam-V], the Ki [1] is listed as 11 nM.
In the case of `C/C=C(/C)C(=O)O[C@H]1C(C)=C[C@]23C(=O)[C@H](C=C(CO)[C@@H](O)[C@]12O)[C@H]1[C@@H](C[C@H]3C)C1(C)C` [Ingenol 3-angelate, ingenol 3-angelate], the Ki [1] is listed as 0.1 nM.
In the case of `CC1=CC[C@H](C)C(C)(C)[C@@H]1/C=C/C(C)=C/CC[C@@]1(CO)[C@H](CCCO)/C(=C(/C)C=O)CC[C@]1(C)O` [Iripallidal, iripallidal], the Ki [1] is listed as 75.6 nM.
For `C=C(C)[C@@]12O[C@@]3(c4ccccc4)O[C@@H]1[C@@H]1[C@@H]4O[C@]4(CO)[C@@H](O)[C@]4(O)C(=O)C(C)=C[C@H]4[C@@]1(O3)[C@H](C)[C@H]2OC(=O)/C=C/C=C/c1ccccc1` [Mezerein, mezerein], the Ki [1] is listed as 0.27 nM.
In the case of `CCCCCCCCCCCCCC(=O)O[C@@H]1[C@@H](C)[C@@]2(O)[C@@H](C=C(CO)C[C@]3(O)C(=O)C(C)=C[C@@H]23)[C@@H]2C(C)(C)[C@]12OC(C)=O` [Phorbol 12-myristate-13-acetate, reference compound], the “Displacement assay raw data (CCPM)” value ([2]; 1 nM test substance, listed as PMA) is reported as 1177 CCPM and 1302 CCPM and 1254 CCPM and 242 CCPM and 282 CCPM and 239 CCPM and 330 CCPM and 372 CCPM and 364 CCPM, the “Displacement assay raw data (CCPM)” value ([2]; 10 nM test substance, listed as PMA) is reported as 406 CCPM and 456 CCPM and 410 CCPM and 123 CCPM and 132 CCPM and 186 CCPM and 230 CCPM and 206 CCPM and the “Displacement assay raw data (CCPM)” value ([2]; 100 nM test substance, listed as PMA) is reported as 341 CCPM and 382 CCPM and 361 CCPM and 56 CCPM and 49 CCPM and 43 CCPM and 48 CCPM and 57 CCPM and 40 CCPM.
For `CC(=O)O[C@@]12[C@H](O)[C@@H](C)[C@@]3(O)[C@@H](C=C(CO)C[C@]4(O)C(=O)C(C)=C[C@@H]34)[C@@H]1C2(C)C` [Phorbol 13-acetate, phorbol 13-acetate], the Ki [1] is given as 120000 nM.
